# Experimental data published in ChEMBL document CHEMBL4393657, “Tetrazole hybrids and their antifungal activities” (2019).
# Legend:
# Format in all cases: functional
# Cryptococcus neoformans = experiment: Antifungal activity against Cryptococcus neoformans LA314 assessed as reduction in fungal cell growth incubated for 48 hrs by broth microdilution method; details: LA314, 48 h
# Nakaseomyces glabratus = experiment: Antifungal activity against Candida glabrata assessed as reduction in fungal cell growth incubated for 48 hrs by broth microdilution method
# Candida parapsilosis = experiment: Antifungal activity against Candida parapsilosis ATCC 22019 assessed as reduction in fungal cell growth incubated for 48 hrs by broth microdilution method; details: Lodderomyces parapsilosis, ATCC 22019, 48 h
# Pichia kudriavzevii = experiment: Antifungal activity against Candida krusei assessed as reduction in fungal cell growth incubated for 48 hrs by broth microdilution method
# Candida albicans = experiment: Antifungal activity against Candida albicans assessed as reduction in fungal cell growth incubated for 48 hrs by broth microdilution method
# Candida tropicalis = experiment: Antifungal activity against Candida tropicalis assessed as reduction in fungal cell growth incubated for 48 hrs by broth microdilution method
# Aspergillus niger = experiment: Antifungal activity against Aspergillus niger assessed as reduction in fungal cell growth incubated for 72 hrs by broth microdilution method
MIC (Cryptococcus neoformans) [µg/mL],MIC (Nakaseomyces glabratus) [µg/mL],MIC (Candida parapsilosis) [µg/mL],MIC (Pichia kudriavzevii) [µg/mL],MIC (Candida albicans) [µg/mL],MIC (Candida tropicalis) [µg/mL],MIC (Aspergillus niger) [µg/mL],SMILES
0.25 to 16,0.25 to 16,0.25 to 16,0.25 to 16,0.25 to 16,0.25 to 16,0.25 to 16,COc1ccccc1N1CCN(CCc2nnn([C@@H](C)[C@](O)(Cn3cncn3)c3ccc(F)cc3F)n2)CC1
0.5 to 16,0.5 to 16,0.5 to 16,0.5 to 16,0.5 to 16,0.5 to 16,0.5 to 16,CC(n1nnnc1CCN1CCN(c2ccccn2)CC1)C(O)(Cn1cncn1)c1ccc(F)cc1F (stereo unspecified)
0.5 to 16,0.5 to 16,0.5 to 16,0.5 to 16,0.5 to 16,0.5 to 16,0.5 to 16,OC(Cn1cncn1)(Cn1nnnc1CCN1CCN(c2cccc(Cl)c2)CC1)c1ccc(F)cc1F (stereo unspecified)
0.5 to 16,0.5 to 16,0.5 to 16,0.5 to 16,0.5 to 16,0.5 to 16,0.5 to 16,OC(Cn1cncn1)(Cn1nnnc1CCN1CCN(c2ccccn2)CC1)c1ccc(F)cc1F (stereo unspecified)
0.5 to 16,0.5 to 16,0.5 to 16,0.5 to 16,0.5 to 16,0.5 to 16,0.5 to 16,COc1ccc(N2CCN(CCc3nnnn3CC(O)(Cn3cncn3)c3ccc(F)cc3F)CC2)cc1 (stereo unspecified)
1 to 16,1 to 16,1 to 16,1 to 16,1 to 16,1 to 16,1 to 16,CC(n1nnc(CCN2CCN(c3cccc(C(F)(F)F)c3)CC2)n1)C(O)(Cn1cncn1)c1ccc(F)cc1F (stereo unspecified)
0.25 to 16,0.25 to 16,0.25 to 16,0.25 to 16,0.25 to 16,0.25 to 16,0.25 to 16,C[C@H](n1nnc(CCN2CCN(Cc3ccccc3)CC2)n1)[C@](O)(Cn1cncn1)c1ccc(F)cc1F
1 to 16,1 to 16,1 to 16,1 to 16,1 to 16,1 to 16,1 to 16,CCCCOc1ccccc1N1CCN(CCc2nnn(CC(O)(Cn3cncn3)c3ccc(F)cc3F)n2)CC1 (stereo unspecified)
1 to 16,1 to 16,1 to 16,1 to 16,1 to 16,1 to 16,1 to 16,OC(Cn1cncn1)(Cn1nnc(CCN2CCN(c3ccccn3)CC2)n1)c1ccc(F)cc1F (stereo unspecified)
0.5 to 16,0.5 to 16,0.5 to 16,0.5 to 16,0.5 to 16,0.5 to 16,0.5 to 16,CC(n1nnnc1CCN1CCN(Cc2ccccc2)CC1)C(O)(Cn1cncn1)c1ccc(F)cc1F (stereo unspecified)
0.12 to 16,0.12 to 16,0.12 to 16,0.12 to 16,0.12 to 16,0.12 to 16,0.12 to 16,C[C@H](n1nnnc1CCN1CCN(c2c(Cl)cccc2Cl)CC1)[C@](O)(Cn1cncn1)c1ccc(F)cc1F
0.5 to 16,0.5 to 16,0.5 to 16,0.5 to 16,0.5 to 16,0.5 to 16,0.5 to 16,CC(n1nnnc1CCN1CCN(c2cccc(C(F)(F)F)c2)CC1)C(O)(Cn1cncn1)c1ccc(F)cc1F (stereo unspecified)
0.25 to 16,0.25 to 16,0.25 to 16,0.25 to 16,0.25 to 16,0.25 to 16,0.25 to 16,C[C@H](n1nnc(CCN2CCN(c3cccc(C(F)(F)F)c3)CC2)n1)[C@](O)(Cn1cncn1)c1ccc(F)cc1F
